From patent EP3800188A1, “SUBSTITUTED PYRAZOLOPYRIMIDINES AS IRAK4 INHIBITORS” (Bayer AG, priority 2019, dated 2021)

Tests used:
[1] = Metabolic stability in human liver microsomes; conditions: 1 µM compound; for CLblood, human microsomes: hepatic in vivo blood clearance calculated with well stirred liver model, '(stable)' given beside < 0.01; for Fmax, human microsomes: maximal oral bioavailability calculated with well stirred liver model, 0.5 mg/mL protein, '(stable)' given beside 100
human IRAK4 = target: T1, human IRAK4 (Homo sapiens, UniProt Q9NWZ3); assay: Human IRAK4 kinase activity inhibition assay (IRAK4 TR-FRET assay); type: biochemical; conditions: 1 mM ATP, GST-human IRAK4, average or median values
T1 construct: GST (N); made in house; host or cells: baculovirus-infected Hi5 (BTI-TN-5B1-4) insect cells
T1 sequence (Q9NWZ3 1-460): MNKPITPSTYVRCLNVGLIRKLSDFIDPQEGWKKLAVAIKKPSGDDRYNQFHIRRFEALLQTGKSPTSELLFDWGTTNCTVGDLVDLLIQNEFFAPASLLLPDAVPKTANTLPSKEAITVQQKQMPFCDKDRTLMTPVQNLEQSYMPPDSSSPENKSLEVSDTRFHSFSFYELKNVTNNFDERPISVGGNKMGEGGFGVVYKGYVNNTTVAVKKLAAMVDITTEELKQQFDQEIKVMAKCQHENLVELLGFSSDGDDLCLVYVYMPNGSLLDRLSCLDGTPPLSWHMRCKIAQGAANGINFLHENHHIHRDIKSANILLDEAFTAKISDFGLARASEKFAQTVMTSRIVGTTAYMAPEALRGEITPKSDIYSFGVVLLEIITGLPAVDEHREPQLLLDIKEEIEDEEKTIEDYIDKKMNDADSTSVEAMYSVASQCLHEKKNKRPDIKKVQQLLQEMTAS
Summary of the method: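 Signal was the 665/620 nm emission ratio from a europium anti-mouse-IgG, anti-phosphoserine antibody and streptavidin-XL665 complex formed over 1 h at 22°C. It was scaled between no-enzyme (100%) and no-compound (0%) wells. Beforehand, compounds (20 µM down to 0.073 nM, 11 points) sat 15 min with roughly 0.2 nM insect-cell-expressed GST-human IRAK4 before phosphorylation of a biotinylated peptide substrate.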

Row | Compound | CLblood, human microsomes [1] | Fmax, human microsomes [1] | IC50 (human IRAK4) [nM]
1 | C[C@H]1CN(c2nc(N[C@H]3C[C@H](S(C)(=O)=O)C3)nc3c2cnn3-c2cccc(C(F)F)c2)C[C@@H]1O (relative stereo) [II-17-1, rel-(3R,4S)-1-(1-[3-(difluoromethyl)phenyl]-6-{[trans-3-(methylsulfonyl)cyclobutyl]-amino}-1H-pyrazolo[3,4-d]pyrimidin-4-yl)-4-methylpyrrolidin-3-ol] | 0.10 L/h/kg | 93% | 2.64
2 | C[C@H]1CN(c2nc(N[C@H]3C[C@H](S(C)(=O)=O)C3)nc3c2cnn3-c2cccc(C(F)F)c2)C[C@@H]1O (single isomer, unassigned) [II-17-2, (3R*,4S*)-1-(1-[3-(difluoromethyl)phenyl]-6-{[trans-3-(methylsulfonyl)cyclobutyl]amino}-1H-pyrazolo[3,4-d]pyrimidin-4-yl)-4-methylpyrrolidin-3-ol] | 0.28 L/h/kg | 79% | 2.1
3 | CCC1(O)CN(c2nc(N[C@@H]3CNC(=O)C3)nc3c2cnn3-c2cccc(C(F)(F)F)c2)C1 [Example I-3-1, (4S)-4-({4-(3-ethyl-3-hydroxyazetidin-1-yl)-1-[3-(trifluoromethyl)phenyl]-1H-pyrazolo[3,4-d]pyrimidin-6-yl}amino)pyrrolidin-2-one] | 0.46 L/h/kg | 65% | 9.76
4 | CC(C)(O)C1CCN(c2nc(N[C@@H]3CCOC3)nc3c2cnn3-c2cccc(C(F)(F)F)c2)CC1 [Example I-16-2, 2-(1-{6-[(3R)-tetrahydrofuran-3-ylamino]-1-[3-(trifluoromethyl)phenyl]-1H-pyrazolo[3,4-d]pyrimidin-4-yl}piperidin-4-yl)propan-2-ol] | 0.92 L/h/kg | 30% | 16.1
5 | O=S1(=O)CC[C@@H](Nc2nc(N3CC(N4CCOCC4)C3)c3cnn(-c4cccc(C(F)(F)F)c4)c3n2)C1 [Example I-22, N-[(3R)-1,1-dioxidotetrahydrothiophen-3-yl]-4-[3-(morpholin-4-yl)azetidin-1-yl]-1-[3-(trifluoromethyl)phenyl]-1H-pyrazolo[3,4-d]pyrimidin-6-amine] | 0.34 L/h/kg | 74% | 99.3
6 | O=C1C[C@H](Nc2nc(N3CCC(N4CCOCC4)CC3)c3cnn(-c4cccc(C(F)(F)F)c4)c3n2)CN1 [Example I-27, (4S)-4-({4-[4-(morpholin-4-yl)piperidin-1-yl]-1-[3-(trifluoromethyl)phenyl]-1H-pyrazolo[3,4-d]pyrimidin-6-yl}amino)pyrrolidin-2-one] | 0.17 L/h/kg | 87% | 7.01
7 | CC(C)(O)C1CCN(c2nc(N[C@H]3CC[C@@H](O)C3)nc3c2cnn3-c2cccc(C(F)(F)F)c2)CC1 [Example I-29, (1R,3S)-3-({4-[4-(2-hydroxypropan-2-yl)piperidin-1-yl]-1-[3-(trifluoromethyl)phenyl]-1H-pyrazolo[3,4-d]pyrimidin-6-yl}amino)cyclopentanol] | 0.43 L/h/kg | 68% | 10.8
8 | CC1(O)CCN(C2CN(c3nc(N[C@@H]4CNC(=O)C4)nc4c3cnn4-c3cccc(C(F)(F)F)c3)C2)CC1 [Example I-30, (4S)-4-({4-[3-(4-hydroxy-4-methylpiperidin-1-yl)azetidin-1-yl]-1-[3-(trifluoromethyl)phenyl]-1H-pyrazolo[3,4-d]pyrimidin-6-yl)amino)pyrrolidin-2-one] | < 0.01 (stable) L/h/kg | 100 (stable) % | 6.15
9 | CN1CC[C@H](Nc2nc(N3C[C@@H](O)[C@H](O)C3)c3cnn(-c4cccc(C(F)(F)F)c4)c3n2)C1 [Example I-31, (3R,4R)-1-(6-{[(3S)-1-methylpyrrolidin-3-yl]amino}-1-[3-(trifluoromethyl)phenyl]-1H-pyrazolo[3,4-d]pyrimidin-4-yl)pyrrolidine-3,4-diol] | < 0.01 (stable) L/h/kg | 100 (stable) % | 12.6
10 | CC(C)(N)C1CN(c2nc(NC3CCS(=O)(=O)CC3)nc3c2cnn3-c2cccc(C(F)(F)F)c2)C1 [Example I-45, 4-[3-(2-aminopropan-2-yl)azetidin-1-yl]-N-(1,1-dioxidotetrahydro-2H-thiopyran-4-yl)-1-[3-(trifluoromethyl)phenyl]-1H-pyrazolo[3,4-d]pyrimidin-6-amine] | 0.05 L/h/kg | 96% | 5.1
11 | CC(C)(N)C1CCN(c2nc(NC3CCS(=O)(=O)CC3)nc3c2cnn3-c2cccc(C(F)(F)F)c2)CC1 [Example I-46, 4-[4-(2-aminopropan-2-yl)piperidin-1-yl]-N-(1,1-dioxidotetrahydro-2H-thiopyran-4-yl)-1-[3-(trifluoromethyl)phenyl]-1H-pyrazolo[3,4-d]pyrimidin-6-amine] | 0.25 L/h/kg | 81% | 1.4
12 | CC(C)(N)C1CCN(c2nc(N[C@@H]3CNC(=O)C3)nc3c2cnn3-c2cccc(C(F)(F)F)c2)CC1 [Example I-47, (4S)-4-({4-[4-(2-aminopropan-2-yl)piperidin-1-yl]-1-[3-(trifluoromethyl)phenyl]-1H-pyrazolo[3,4-d]pyrimidin-6-yl}amino)pyrrolidin-2-one] | 0.17 L/h/kg | 87% | 0.861
13 | NC1(C2CCN(c3nc(N[C@@H]4CNC(=O)C4)nc4c3cnn4-c3cccc(C(F)(F)F)c3)CC2)CC1 [Example I-48, (4S)-4-({4-[4-(1-aminocyclopropyl)piperidin-1-yl]-1-[3-(trifluoromethyl)phenyl]-1H-pyrazolo[3,4-d]pyrimidin-6-yl}amino)pyrrolidin-2-one] | < 0.01 (stable) L/h/kg | 100 (stable) % | 1.12
14 | CC(C)(O)CC1CN(c2nc(N[C@@H]3CNC(=O)C3)nc3c2cnn3-c2cccc(C(F)(F)F)c2)C1 [Example I-49, (4S)-4-({4-[3-(2-hydroxy-2-methylpropyl)azetidin-1-yl]-1-[3-(trifluoromethyl)phenyl]-1H-pyrazolo[3,4-d]pyrimidin-6-yl}amino)pyrrolidin-2-one] | 0.13 L/h/kg | 90% | 3.85
15 | O=C1C[C@H](Nc2nc(N3CC(CC(=O)N4CCOCC4)C3)c3cnn(-c4cccc(C(F)(F)F)c4)c3n2)CN1 [Example I-51, (4S)-4-[(4-{3-[2-(morpholin-4-yl)-2-oxoethyl]azetidin-1-yl}-1-[3-(trifluoromethyl)phenyl]-1H-pyrazolo[3,4-d]pyrimidin-6-yl)amino]pyrrolidin-2-one] | 0.25 L/h/kg | 81% | 2.5
